Among the data in ChEMBL document CHEMBL1201862, “PubChem BioAssay data set” (2004) are IC50 and EC50 values, retold here.

The target in experiment [1] is Eukaryotic translation initiation factor 4E (Mus musculus, UniProt P63073). In words: blockers of eIF4G binding by eIF4E – biochemical, TR-FRET, dose response (AID 855).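 Also: potency for disrupting eIF4E binding to eIF4GI seen as loss of FRET.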 The class given is functional. A general note: In TR-FRET formats the signal depends on donor and acceptor labels being close together.
Eukaryotic translation initiation factor 4E, sequence (P63073 whole entry): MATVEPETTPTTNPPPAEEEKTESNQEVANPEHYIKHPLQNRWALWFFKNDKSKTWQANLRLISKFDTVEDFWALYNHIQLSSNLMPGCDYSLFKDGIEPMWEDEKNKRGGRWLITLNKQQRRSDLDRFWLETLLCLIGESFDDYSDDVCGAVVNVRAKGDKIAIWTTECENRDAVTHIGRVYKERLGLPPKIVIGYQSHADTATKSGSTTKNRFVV
Experiment [2] concerns the target T1, Voltage-gated N-type calcium channel alpha-1B subunit/Amyloid beta A4 precursor protein-binding family A member 1 (Homo sapiens, UniProt Q00975+Q02410). The class given is protein assay.
Experiment [3] deals with T1, Voltage-gated N-type calcium channel alpha-1B subunit/Amyloid beta A4 precursor protein-binding family A member 1. The experiment is classed as protein assay. The source holds these as a separate data set.
For experiment [4], the target named is T2, Neuropeptides B/W receptor type 1 (Homo sapiens, UniProt P48145).
T2 sequence (P48145 whole entry): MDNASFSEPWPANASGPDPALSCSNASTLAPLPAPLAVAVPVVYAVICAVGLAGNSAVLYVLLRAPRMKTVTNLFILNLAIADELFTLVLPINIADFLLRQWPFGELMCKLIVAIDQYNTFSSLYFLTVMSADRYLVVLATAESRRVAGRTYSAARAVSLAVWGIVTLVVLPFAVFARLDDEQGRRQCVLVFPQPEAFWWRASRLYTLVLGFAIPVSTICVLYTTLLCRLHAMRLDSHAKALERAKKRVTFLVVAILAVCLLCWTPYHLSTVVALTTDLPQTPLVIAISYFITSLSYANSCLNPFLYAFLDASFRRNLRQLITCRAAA
In words: Fluorescence-based dose response cell-based high throughput screening assay to identify antagonists of the G-protein coupled receptor 7 (GPR7). [Related pubchem assays: 1952 (Screening assay (GPR7 antagonists).), 1880 (Summary AID.)]. The experiment is classed as functional.

The target of experiment [5] is Melanin-concentrating hormone receptor 1 (Homo sapiens, UniProt Q99705). In words: Fluorescence-based counterscreen for antagonists of the G-protein coupled receptor 7 (GPR7): cell-based high throughput dose response assay to identify antagonists of the melanin-concentrating hormone receptor 1 (MCHR1). The experiment is classed as functional.
Melanin-concentrating hormone receptor 1, sequence (Q99705 whole entry): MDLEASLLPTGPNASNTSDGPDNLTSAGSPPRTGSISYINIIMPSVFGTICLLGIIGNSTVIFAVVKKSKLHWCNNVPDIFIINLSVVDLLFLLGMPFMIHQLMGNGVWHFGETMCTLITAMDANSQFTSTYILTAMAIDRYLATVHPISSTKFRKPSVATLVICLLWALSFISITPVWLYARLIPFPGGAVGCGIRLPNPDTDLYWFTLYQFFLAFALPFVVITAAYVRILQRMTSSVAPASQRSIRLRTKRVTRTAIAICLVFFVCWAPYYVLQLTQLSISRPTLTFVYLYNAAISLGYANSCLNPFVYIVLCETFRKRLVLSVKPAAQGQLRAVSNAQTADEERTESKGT
In experiment [6] the target is T3, Eukaryotic translation initiation factor 2-alpha kinase 3 (Homo sapiens, UniProt Q9NZJ5).
T3 sequence (Q9NZJ5 whole entry): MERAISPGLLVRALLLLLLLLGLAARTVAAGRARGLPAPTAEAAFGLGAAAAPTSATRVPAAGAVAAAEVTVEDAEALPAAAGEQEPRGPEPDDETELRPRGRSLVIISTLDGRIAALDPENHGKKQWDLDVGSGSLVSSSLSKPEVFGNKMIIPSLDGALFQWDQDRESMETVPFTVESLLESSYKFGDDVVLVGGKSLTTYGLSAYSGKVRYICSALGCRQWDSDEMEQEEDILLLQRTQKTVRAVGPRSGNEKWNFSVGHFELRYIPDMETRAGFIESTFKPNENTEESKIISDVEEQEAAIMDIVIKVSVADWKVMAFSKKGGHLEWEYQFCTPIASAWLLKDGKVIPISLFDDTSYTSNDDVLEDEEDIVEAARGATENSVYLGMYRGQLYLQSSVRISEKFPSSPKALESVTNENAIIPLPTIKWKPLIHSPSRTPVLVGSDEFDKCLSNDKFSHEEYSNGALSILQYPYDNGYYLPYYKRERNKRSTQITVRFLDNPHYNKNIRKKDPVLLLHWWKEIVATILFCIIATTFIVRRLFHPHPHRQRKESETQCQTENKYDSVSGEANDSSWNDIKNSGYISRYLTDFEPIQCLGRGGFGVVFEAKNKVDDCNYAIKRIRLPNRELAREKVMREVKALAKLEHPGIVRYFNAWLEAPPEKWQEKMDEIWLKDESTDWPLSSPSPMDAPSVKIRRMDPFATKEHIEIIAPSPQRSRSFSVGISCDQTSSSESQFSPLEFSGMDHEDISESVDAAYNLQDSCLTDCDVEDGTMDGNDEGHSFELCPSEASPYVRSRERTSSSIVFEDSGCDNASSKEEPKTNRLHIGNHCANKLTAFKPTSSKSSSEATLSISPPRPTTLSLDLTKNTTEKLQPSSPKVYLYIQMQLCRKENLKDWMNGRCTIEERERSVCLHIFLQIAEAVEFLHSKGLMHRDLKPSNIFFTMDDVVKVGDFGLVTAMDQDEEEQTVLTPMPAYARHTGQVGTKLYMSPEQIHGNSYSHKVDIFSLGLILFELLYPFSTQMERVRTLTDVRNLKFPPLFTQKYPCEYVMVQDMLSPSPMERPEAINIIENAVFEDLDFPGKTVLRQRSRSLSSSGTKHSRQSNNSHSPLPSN
The experiment in a line: Dose response cell-based high-throughput screening assay to measure PERK inhibition. [Related pubchem assays: 1416 ]. The class given is functional.

The target of experiment [7] is T3, Eukaryotic translation initiation factor 2-alpha kinase 3. In words: Counterscreen assay for PERK inhibitors: Dose response cell-based high throughput screening assay to measure inhibition of PERK at 6 hours. [Related pubchem assays: 1522, 1416 ]. The class given is functional. Background: Counterscreens check selectivity or assay interference.
Experiment [8] in a line: luciferase reporter signal suppression in cells – H4 neuroglioma cells, luminescence, dose response (AID 1990). The class given is functional, cell-based. In general terms: A reporter such as luciferase makes a cellular process visible.
Experiment [9] in a line: luciferase reporter signal reduction – luminescence, H4-C neuroglioblastoma cells, dose response (AID 2458).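 Also: H4 neuroglioblastoma cells stably carrying a luciferase reporter gene fusion.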 The experiment is classed as functional, cell-based.
The nature of a further experiment: cells. The experiment is classed as functional, cell-based.
Experiment [10] in a line: alpha-synuclein stem-loop luciferase translation blockers – H4 neuroglioma cells, luminescence, confirmation (AID 1988). The experiment is classed as functional, cell-based.
Experiment [11] can be described thus: viability of PTEN-deleted HCT116 cells – cell-based, HCT116 PTEN knockout, dose response (AID 1047).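 Also: HCT116 colon tumor cells with PTEN knocked out; cells exposed to compound for 60 hours before readout; potency for loss of cell viability measured by luminescence.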 The class given is functional.
Experiment [12] in a line: viability of HCT116 lacking mutant beta-catenin – cell-based, human colon tumor, dose response (AID 1045).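 Also: HCT116 colon tumor cells with beta catenin knocked out; cells exposed to compound for 60 hours.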 The experiment is classed as functional.
Experiment [13] in a line: alpha-synuclein stem-loop translation blockers – luminescence, H4 neuroglioblastoma cells, dose confirmation, confirmation (AID 2454).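 Also: H4 neuroglioblastoma cells carrying an alpha-synuclein 5'UTR luciferase reporter; potency for inhibition of the luciferase signal.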 The experiment is classed as functional, cell-based.
Experiment [14] in a line: HEK-293T viability loss after treatment – luminescence, T-cell screen hits, cytotoxicity control for TCR NF-kB inhibitor project, dose response (AID 489026).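 Also: cells exposed to compound about 14 hours before the viability readout.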 The experiment is classed as functional, cell-based.

Calls of active or inactive are those of the source. A value given as a limit tells only on which side of the number the result lay.

T1 sequence (Q00975 whole entry): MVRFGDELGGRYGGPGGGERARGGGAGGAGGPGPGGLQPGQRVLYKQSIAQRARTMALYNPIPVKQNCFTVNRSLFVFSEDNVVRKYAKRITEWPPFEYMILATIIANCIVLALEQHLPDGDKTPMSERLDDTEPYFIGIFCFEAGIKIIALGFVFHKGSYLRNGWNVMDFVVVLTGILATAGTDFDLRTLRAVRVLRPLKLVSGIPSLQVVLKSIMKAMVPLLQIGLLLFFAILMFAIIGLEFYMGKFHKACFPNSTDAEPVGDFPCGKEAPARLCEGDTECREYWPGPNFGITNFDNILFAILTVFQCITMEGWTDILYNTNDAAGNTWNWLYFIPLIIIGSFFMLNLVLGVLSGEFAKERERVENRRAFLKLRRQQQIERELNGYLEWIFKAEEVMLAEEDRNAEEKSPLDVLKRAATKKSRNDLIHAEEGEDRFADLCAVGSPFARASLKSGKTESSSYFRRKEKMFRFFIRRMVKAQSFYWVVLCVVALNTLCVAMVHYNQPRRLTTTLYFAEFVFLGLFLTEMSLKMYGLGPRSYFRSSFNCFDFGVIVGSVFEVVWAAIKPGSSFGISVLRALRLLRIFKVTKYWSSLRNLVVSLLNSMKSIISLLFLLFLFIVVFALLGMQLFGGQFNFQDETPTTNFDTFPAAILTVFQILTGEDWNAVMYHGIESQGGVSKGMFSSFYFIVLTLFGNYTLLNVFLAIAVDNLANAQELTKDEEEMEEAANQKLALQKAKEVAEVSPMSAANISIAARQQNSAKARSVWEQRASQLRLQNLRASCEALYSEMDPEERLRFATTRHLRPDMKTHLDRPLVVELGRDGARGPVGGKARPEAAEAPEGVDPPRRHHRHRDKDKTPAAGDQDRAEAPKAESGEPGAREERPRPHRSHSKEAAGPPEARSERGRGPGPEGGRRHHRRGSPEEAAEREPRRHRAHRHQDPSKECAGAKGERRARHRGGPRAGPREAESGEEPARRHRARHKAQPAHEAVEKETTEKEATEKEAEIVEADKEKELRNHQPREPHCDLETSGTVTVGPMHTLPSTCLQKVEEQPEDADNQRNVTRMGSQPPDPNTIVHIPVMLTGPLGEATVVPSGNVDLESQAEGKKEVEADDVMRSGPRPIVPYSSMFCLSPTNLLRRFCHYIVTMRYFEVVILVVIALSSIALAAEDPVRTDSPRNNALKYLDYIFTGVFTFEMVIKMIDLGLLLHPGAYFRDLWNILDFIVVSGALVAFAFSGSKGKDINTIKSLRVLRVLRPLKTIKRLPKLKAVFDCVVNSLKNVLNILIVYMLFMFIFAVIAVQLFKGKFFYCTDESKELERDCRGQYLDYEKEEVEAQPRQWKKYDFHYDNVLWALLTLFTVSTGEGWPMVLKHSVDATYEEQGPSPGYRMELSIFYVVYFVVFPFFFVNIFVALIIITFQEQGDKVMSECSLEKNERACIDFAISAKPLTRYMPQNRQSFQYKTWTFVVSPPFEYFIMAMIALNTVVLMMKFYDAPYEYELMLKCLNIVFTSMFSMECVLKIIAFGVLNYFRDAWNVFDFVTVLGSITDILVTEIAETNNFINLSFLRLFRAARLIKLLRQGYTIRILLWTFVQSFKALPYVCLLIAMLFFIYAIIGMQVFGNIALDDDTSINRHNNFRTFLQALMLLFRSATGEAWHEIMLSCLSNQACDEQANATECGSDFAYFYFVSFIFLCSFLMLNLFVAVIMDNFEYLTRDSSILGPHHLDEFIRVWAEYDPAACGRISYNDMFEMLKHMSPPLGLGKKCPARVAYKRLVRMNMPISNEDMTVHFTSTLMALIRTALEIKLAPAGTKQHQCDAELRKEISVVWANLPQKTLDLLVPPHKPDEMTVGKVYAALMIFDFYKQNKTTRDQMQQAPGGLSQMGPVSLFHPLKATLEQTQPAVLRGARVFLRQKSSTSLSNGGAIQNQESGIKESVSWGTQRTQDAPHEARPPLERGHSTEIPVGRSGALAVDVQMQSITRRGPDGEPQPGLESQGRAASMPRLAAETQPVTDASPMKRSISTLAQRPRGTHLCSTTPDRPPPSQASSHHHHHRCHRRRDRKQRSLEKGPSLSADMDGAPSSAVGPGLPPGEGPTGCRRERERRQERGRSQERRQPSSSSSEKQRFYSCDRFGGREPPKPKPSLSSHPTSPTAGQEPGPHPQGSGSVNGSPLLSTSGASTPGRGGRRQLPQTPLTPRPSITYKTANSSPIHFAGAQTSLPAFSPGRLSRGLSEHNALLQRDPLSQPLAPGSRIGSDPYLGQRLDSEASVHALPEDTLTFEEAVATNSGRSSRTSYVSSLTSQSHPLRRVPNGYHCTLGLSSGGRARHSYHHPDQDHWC
T1 sequence (Q02410 whole entry): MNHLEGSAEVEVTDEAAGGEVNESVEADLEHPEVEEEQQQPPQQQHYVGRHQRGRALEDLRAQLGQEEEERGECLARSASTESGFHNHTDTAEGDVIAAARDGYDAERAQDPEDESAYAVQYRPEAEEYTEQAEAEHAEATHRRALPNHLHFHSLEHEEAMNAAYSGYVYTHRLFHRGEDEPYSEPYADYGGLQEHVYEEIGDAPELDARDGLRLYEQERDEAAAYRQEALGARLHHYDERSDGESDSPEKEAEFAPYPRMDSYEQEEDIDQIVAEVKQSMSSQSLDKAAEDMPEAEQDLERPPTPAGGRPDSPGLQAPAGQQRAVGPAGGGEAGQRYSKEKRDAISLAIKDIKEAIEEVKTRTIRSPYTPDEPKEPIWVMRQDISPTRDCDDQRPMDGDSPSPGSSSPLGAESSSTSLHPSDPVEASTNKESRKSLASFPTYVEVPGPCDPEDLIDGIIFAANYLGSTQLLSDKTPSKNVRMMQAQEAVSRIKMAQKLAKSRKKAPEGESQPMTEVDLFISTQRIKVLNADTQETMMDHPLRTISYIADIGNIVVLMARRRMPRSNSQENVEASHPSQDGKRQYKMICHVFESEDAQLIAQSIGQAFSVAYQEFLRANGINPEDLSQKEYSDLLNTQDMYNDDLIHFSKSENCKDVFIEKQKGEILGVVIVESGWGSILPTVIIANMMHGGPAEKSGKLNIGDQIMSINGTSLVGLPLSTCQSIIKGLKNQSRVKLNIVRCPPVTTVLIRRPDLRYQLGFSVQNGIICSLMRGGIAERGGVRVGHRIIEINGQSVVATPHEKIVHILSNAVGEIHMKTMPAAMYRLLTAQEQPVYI

As to `O=C(NC1CCCCC1)C1CCN(c2cnccn2)CC1`, in [1], the IC50 was > 64 µM (inactive).

For `Cc1cc(C)c2c(=O)n(CC(=O)N3CCC(Cc4ccccc4)CC3)sc2n1`, the IC50 in [2] was 15.5 µM (active); in experiment [3], > 50 µM (inactive).

In the case of `Cc1ccc(-n2c(SCC(N)=O)nnc2-c2ccc(S(=O)(=O)N3CCCCC3)cc2)c(C)c1`, the figures for the IC50 in [4] and in experiment [5] were 5.29 µM (active) and 29.6 µM (not active), respectively.

With `COC(=O)C(NC(C)=O)(Nc1ccc(C)cn1)C(F)(F)F` (configuration not stated), the EC50 in [6] and in experiment [7] was > 55.7 µM (not active) throughout.

As to `COc1ccc2c3c([nH]c2c1)C1CC2C(CC(O)C(OC)C2CO)CN1CC3` (configuration not stated), the EC50 in experiment [6] and in experiment [7] was > 55.7 µM (not active) each time.

Take `CCn1c2ccccc2c2cc(Nc3cc(C)nc4ncnn34)ccc21`: the EC50 in experiment [8] is < 0.1 µM (active); in experiment [9], 0.265 µM (active); in the experiment “cells”, 0.255 µM (active); in [10], < 0.1 µM (active); in experiment [11], < 0.059 µM (active); in [12] it was < 0.059 µM (active). For the same molecule, in [13], the EC50 is 0.354 µM (active). The IC50 in [14] is 43.4 µM (inactive).

One may read the IC50 as the midpoint of a concentration-inhibition curve. The term EC50 denotes the concentration that produces a half-maximal response.
